Source: patent US20250352532A1, “REDUCED N[…] IN PHARMACEUTICAL COMPOSITIONS COMPRISING METHYLPHENIDATE” (MEDICE Arzneimittel Pütter GmbH & Co. KG, priority 2024, published 2025)

Experiment: N-nitrosomethylphenidate content of methylphenidate compositions by UHPLC-MS/MS
Assay type: physicochemical
Conditions: verbal assessment of Table 2; antioxidant/stabilizer in methylphenidate composition
Protocol: To determine the effect of various antioxidants or stabilizers on the prevention of nitrosamine formation in compositions containing methylphenidate, different pharmaceutical compositions were prepared as described in Example 1 above, except that antioxidants/stabilizers other than ascorbyl palmitate were used. However, for better comparability, the molar ratio of methylphenidate: antioxidant/stabilizer was kept constant at 1:3 in all compositions (except for the composition with no antioxidant/stabilizer). Accordingly, the compositions of Example 1 and Comparative Examples 2 to 7 differ only in the type of antioxidant/stabilizer and are otherwise composed exactly as shown in Table 1 above for Example 1. The content of N-nitrosomethylphenidate in the compositions was determined by UHPLC-MS/MS. Accordingly, the term “nitrosamine” in the present context refers to “N-nitrosomethylphenidate”. For sample preparation, the compositions were ground and the resulting powders were extracted with methanol. The following measurement conditions were used for the N-nitrosomethylphenidate determination: • LC column: Waters BEH Shield RP18 (100x2.1 mm, 1.7 um) • Flow rate: 0.4 mL/min • Column temperature: 50° C. . . . • Mobile phase: Phase A: Water with 0.1% by volume formic acid • Phase B: Acetonitrile • Gradient conditions: […]

## CCCCCCCCCCCCCCCC(=O)OC[C@H](O)[C@H]1OC(=O)C(O)=C1O [ascorbyl palmitate]
  effectiveness in reducing nitrosamine formation in compositions with methylphenidate: by far the most effective
